Laboratory results taken from patent US12084473B2, “β-D-2′-deoxy-2′-α-fluoro-2′-β-C-substituted-2-modified-N6-substituted purine nucleotides for HCV treatment” (Atea Pharmaceuticals, Inc., priority 2015, dated 2024).
Like-named read-outs stand apart in the source and are kept apart here.

Assays:
[1] = test system: HCV genotype 1b luciferase reporter replicon; assay: microbe, parasite or virus in culture; type: cell-based
HCV wild type replicon = assay: microbe, parasite or virus in culture; type: cell-based
Protocol: (§1) A transient transfection assay was performed to determine the sensitivity of the […] of HCV to test compounds. Huh-7 cells were electroporated in the presence of RNA transcribed from wild type or S282T HCV replicon plasmids from the T7 promoter. The transfected cells were seeded in to 96-well plates at 7.5×10^3 cells per well in Dulbecco's Modified Eagle's medium. After 24 hr of incubation, medium was removed and replaced with fresh medium containing no or various concentrations of test compounds. Following an additional 96-hr incubation, the anti-HCV activity was measured by luciferase endpoint with Britelite™ Plus luminescence reporter gene kit (Perkin Elmer, Shelton, CT). Duplicate plates were treated and incubated in parallel for assessment of cellular toxicity by staining with the tetrazolium dye XTT.

HCV S282T replicon = assay: microbe, parasite or virus in culture; type: cell-based
Protocol: as §1

[2] = test system: HCV Genotype 4d, NS5B Mutation none; assay: microbe, parasite or virus in culture; type: cell-based
Protocol: (§2) Various patient-derived HCV genotypes containing wild-type and resistance-associated variants were used to determine their relative replication sensitivity to test compounds. Replicon resistance test vectors (RTVs) containing the NS5B genomic regions were prepared using viral RNA isolated from plasma of HCV patients. Each NS5B region was amplified by reverse-transcription polymerase chain reaction and cloned into an HCV replicon RTV which was then transferred by electroporation into Huh-7 cells.

[3] = test system: HCV Genotype 3a-1, NS5B Mutation none; assay: microbe, parasite or virus in culture; type: cell-based
Protocol: as §2

[4] = test system: HCV Genotype 2a, NS5B Mutation none; assay: microbe, parasite or virus in culture; type: cell-based
Protocol: as §2

[5] = test system: HCV Genotype 2b, NS5B Mutation none; assay: microbe, parasite or virus in culture; type: cell-based
Protocol: as §2

[6] = test system: HCV Genotype 4a, NS5B Mutation none; assay: microbe, parasite or virus in culture; type: cell-based
Protocol: as §2

[7] = test system: HCV Genotype 3a-2, NS5B Mutation none; assay: microbe, parasite or virus in culture; type: cell-based
Protocol: as §2

[8] = test system: HCV Genotype 1a, NS5B Mutation L159F; assay: microbe, parasite or virus in culture; type: cell-based
Protocol: as §2

[9] = test system: HCV Genotype 1b, NS5B Mutation C316N; assay: microbe, parasite or virus in culture; type: cell-based
Protocol: as §2

[10] = test system: HCV Genotype 1b, NS5B Mutation none; assay: microbe, parasite or virus in culture; type: cell-based
Protocol: as §2

[11] = test system: HCV Genotype 1a, NS5B Mutation L159F and S282T; assay: microbe, parasite or virus in culture; type: cell-based
Protocol: as §2

[12] = test system: HCV Genotype 1a, NS5B Mutation none; assay: microbe, parasite or virus in culture; type: cell-based
Protocol: as §2

human hepatocytes = assay: Metabolic studies in primary hepatocytes; type: in vitro ADME; conditions: 10 μM, 2-24 hr
Protocol: The metabolism of compounds 25, 27 and 5-2, at a concentration of 10 μM, were investigated in fresh primary cultures of human, dog and mouse hepatocytes. Plated hepatocytes from humans (XenoTech, mixed gender, pooled from 10 donors), male Beagle dog (BioreclamationIVT), and male ICR/CD-1 mice (BioreclamationIVT, 8 donors) in 6-well plates with matrigel overlay were incubated in singlet with 10 μM TA. After 2, 4, 6, 8 or 24 hr, intracellular levels of nucleotide prodrugs and their potential metabolites (prodrugs, monophosphates, triphosphates and nucleosides) were quantitated by LC-MS/MS. Concentrations below the lower limit of quantitation (1.5 pmol/10^6 cells for prodrugs, monophosphates and nucleosides and 12 pmol/10^6 cells for triphosphates) were extrapolated from the standard curves.

[13] = test system: HCV genotype 1b luciferase reporter replicon; assay: microbe, parasite or virus in culture; type: cell-based; conditions: Hepatitis C virus, HuH-7-Luc/Neo-ET, 72 h, read-out: HCV Replicon EC50/EC95: EC50
[14] = Hepatitis C virus, 96 h, read-out: IC50 Value
[15] = Hepatitis C virus, read-out: IC50 Value
[16] = genotype 3a-1, no NS5B mutation
[17] = genotype 3a-2, no NS5B mutation
[18] = genotype 1a, NS5B L159F and S282T

CC(C)OC(=O)[C@H](C)N[P@](=O)(OCC1O[C@@H](n2cnc3c(N(C)C)nc(N)nc32)[C@](C)(F)[C@@H]1O)Oc1ccccc1 (stereo partly drawn) [Compound 25, isopropyl ((((S)-(2R,3R,4R,5R)-5-(2-amino-6-(dimethylamino)-9H-purin-9-yl)-4-fluoro-3-hydroxy-4-methyltetrahydrofuran-2-yl)methoxy)-phenoxy-phosphoryl)-L-alaninate]
fold increase in activity (versus parent nucleoside) [1]: ≥ 2,600
EC95 ([1]; Hepatitis C virus, Huh-7 luc/neo ET cells, 72 hours, luciferase, read-out: HCV Replicon EC50/EC95: EC95): 19 nM
EC50 ([1]; Hepatitis C virus, read-out: EC50 in a replicon assay): 4 nM
Fold increase in activity compared to parent nucleoside ([1]; Table 7): >2,600
IC95 Value (HCV wild type replicon): 2.7 nM
IC50 (HCV wild type replicon; [14]): < 1 nM
Fold Change in IC50 from Sofosbuvir (HCV wild type replicon; NS5B Mutation None): >36.4
Fold Change in IC95 from Sofosbuvir (HCV wild type replicon; NS5B Mutation None): 80.7
cross-resistance to S282T variant (HCV S282T replicon): neither 25, 27, nor 5-2 compounds showed any evidence of cross-resistance
IC50 (HCV S282T replicon; [14]): < 1 nM
Fold Change in IC50 from Sofosbuvir (HCV S282T replicon; NS5B Mutation S282T): >278
Fold Change in IC95 from Sofosbuvir (HCV S282T replicon; NS5B Mutation S282T): >106.4
IC95 Value (HCV S282T replicon; NS5B Mutation S282T, transient assay, 96-hr): 9.4 nM
IC50 [2, 14]: 5.9 nM
Fold Change in IC50 from Sofosbuvir ([2]; genotype 4d, no NS5B mutation): 16.0
Fold Change in IC95 from Sofosbuvir ([2]; genotype 4d, no NS5B mutation): 23.1
IC95 Value ([2]; genotype 4d, no NS5B mutation): 44.2 nM
IC50 [3, 15]: 5.1 nM
Fold Change in IC50 from Sofosbuvir [3, 16]: 24.5
Fold Change in IC95 from Sofosbuvir [3, 16]: 24.8
IC95 Value [3, 16]: 27.8 nM
IC50 [4, 15]: 2.7 nM
Fold Change in IC50 from Sofosbuvir ([4]; genotype 2a, no NS5B mutation): 8.4
Fold Change in IC95 from Sofosbuvir ([4]; genotype 2a, no NS5B mutation): 8.8
IC95 Value ([4]; genotype 2a, no NS5B mutation): 22.2 nM
IC50 [5, 15]: 3 nM
Fold Change in IC50 from Sofosbuvir ([5]; genotype 2b, no NS5B mutation): 15.2
Fold Change in IC95 from Sofosbuvir ([5]; genotype 2b, no NS5B mutation): 19.9
IC95 Value ([5]; genotype 2b, no NS5B mutation): 14.9 nM
IC50 [6, 15]: 4.6 nM
Fold Change in IC50 from Sofosbuvir ([6]; genotype 4a, no NS5B mutation): 16.2
Fold Change in IC95 from Sofosbuvir ([6]; genotype 4a, no NS5B mutation): 20.7
IC95 Value ([6]; genotype 4a, no NS5B mutation): 33.0 nM
IC50 [7, 15]: 4.7 nM
Fold Change in IC50 from Sofosbuvir [7, 17]: 26.3
Fold Change in IC95 from Sofosbuvir [7, 17]: 33.4
IC95 Value [7, 17]: 24.2 nM
cross-resistance to L159F mutant [8]: neither 25, 27 nor 5-2 compound showed any evidence of cross-resistance
IC50 [8, 15]: 5.2 nM
Fold Change in IC50 from Sofosbuvir ([8]; genotype 1a, NS5B L159F): 22.0
Fold Change in IC95 from Sofosbuvir ([8]; genotype 1a, NS5B L159F): 26.4
IC95 Value ([8]; genotype 1a, NS5B L159F): 40.4 nM
cross-resistance to C316N mutant [9]: neither 25, 27 nor 5-2 compound showed any evidence of cross-resistance
IC50 [9, 15]: 3.2 nM
Fold Change in IC50 from Sofosbuvir ([9]; genotype 1b, NS5B C316N): 23.1
Fold Change in IC95 from Sofosbuvir ([9]; genotype 1b, NS5B C316N): 26.2
IC95 Value ([9]; genotype 1b, NS5B C316N): 18.1 nM
IC50 [10, 15]: 5.9 nM
Fold Change in IC50 from Sofosbuvir ([10]; genotype 1b, no NS5B mutation): 1.0
Fold Change in IC95 from Sofosbuvir ([10]; genotype 1b, no NS5B mutation): 20.0
IC95 Value ([10]; genotype 1b, no NS5B mutation): 32.0 nM
cross-resistance to L159F and S282T mutant [11]: neither 25, 27 nor 5-2 compound showed any evidence of cross-resistance
IC50 [11, 15]: 17.2 nM
Fold Change in IC50 from Sofosbuvir [11, 18]: 94.0
Fold Change in IC95 from Sofosbuvir [11, 18]: 107.0
IC95 Value [11, 18]: 158.5 nM
IC50 [12, 15]: 4.4 nM
Fold Change in IC50 from Sofosbuvir ([12]; genotype 1a, no NS5B mutation): 14.2
Fold Change in IC95 from Sofosbuvir ([12]; genotype 1a, no NS5B mutation): 16.2
IC95 Value ([12]; genotype 1a, no NS5B mutation): 31.3 nM
predominant metabolite observed in cultured human hepatocytes (human hepatocytes): β-D-2′-deoxy-2′-α-fluoro-2′-β-methyl-guanine triphosphate
EC50 [13]: 4 nM
